Data reported in US20140050810A1, “ANTI-OBESITY COMPOSITION COMPRISING LYCIUM CHINENSIS LEAF EXTRACT AND BETAINE AS ACTIVE INGREDIENT” (BIONUTRIGEN CO., LTD., priority 2012, published 2014).
Where “and” joins values, the source holds several entries; their conditions need not be identical. Equal values may be shown once. Marks after values point to notes of the source that are not given here.

What was measured:
[1] = Anti-obesity effect of betaine and Lycium chinensis leaf extract powder in human body; format: in vivo; details: Betaine 3 g twice/day 43 days
Method: In order to evaluate the anti-obesity effect of Lycium chinensis leaf extract powder and betaine, subjects' weight, body mass index (BMI), body fat, body fat percentage, and muscle mass were measured prior to the administration of betaine and Lycium chinensis leaf extract powder. Betaine and Lycium chinensis leaf extract powder were separately dissolved in water and administered at a single dose of 3 g and 10 g, respectively, twice a day just before breakfast and supper.
In consideration of their component properties, the Lycium chinensis leaf extract powder, which comprised various components, was administered for 22 days while 43 days was also allocated for the administration of betaine, a single compound. Preventive and therapeutic effects of the two ingredients on obesity were evaluated in view of changes in weight, BMI, body fat, body fat percentage, and muscle mass.

[2] = system: high-fat diet-induced obesity models; experiment: Weight change in high-fat diet-induced obesity mice; format: in vivo, C57BL/6 mice; details: JBB21 1, LWE 2, JBB21+LWE 1+2 g/kg
Method: (§1) Betaine (JBB21), a Lycium chinensis hot water extract powder (LWE), or a mixture thereof (JBB21+LWE) was orally administered five times a week to high-fat diet-induced obesity models and their effects on obesity, hyperlipidemia and fatty liver were analyzed. JBB21 and LWE were purchased as white and brown powders, respectively, from Bionutrigen, and stored at room temperature before use in the experiment.
(§2) C57BL/6, specific pathogen-free (SPF) mice (male, six weeks old, Division of Biomedical Research, Korea Research Institute of Bioscience and Biotechnology) were used as the test animals.
(§3) For comparison, a negative control and an obese group (high fat diet, HFD) were allowed to freely eat a radiation-sterilized control diet (CD, 10% kcal, Research Diets) and a high fat diet (HFD, 60% Kcal, Research Diets, supplied by Central Lab. Animal), respectively, during the administration of JBB21, LWE, or JBB21+LWE.
(§4) JBB21, LWE, and JBB21+LWE were dissolved in 3.D.W at concentrations of 100 mg/mL, 200 mg/mL, and 100+200 mg/mL, respectively, and each of the solutions was orally administered at a dose of 10 mL/kg five times a week for 56 days.
The negative control (CD), the obese group (HFD), and the test groups (JBB21, LWE, and JBB21+LWE) were monitored three times a week for weight change and diet intake before and during administration.
Each of the solutions of JBB21 and LWE was administered at a single dose of 10 mL/kg five times a week for 56 days. […] The LWE (2 g/kg) group decreased in weight by 6.5% by the last day, but no significant changes in weight had been observed during the test period.

[3] = system: high-fat diet-induced obesity models; experiment: Subcutaneous fat and total fat in high-fat diet-induced obesity mice; format: in vivo, C57BL/6 mice; details: JBB21 1, LWE 2, JBB21+LWE 1+2 g/kg
Method: as §1, §2, §3, §4
Meanwhile, subcutaneous fat was also measured.
In addition, total fat was measured in the mice administered with JBB21, LWE, or JBB21+LWE.

[4] = system: high-fat diet-induced obesity models; experiment: Blood leptin, adiponectin and triglyceride levels in high-fat diet-induced obesity mice; format: in vivo, C57BL/6 mice; details: JBB21 1, LWE 2, JBB21+LWE 1+2 g/kg
Method: as §1, §2, §3, §4
Blood samples taken on 56 days after the administration of a mixture of JBB21 and LWE were placed in heparin-coated tubes and stored on ice, followed by centrifugation at 6,000 rpm for 5 min. The plasma thus obtained was analyzed for levels of blood leptin, a hormone marker for obesity, adiponectin, an anti-obesity hormone, and triglyceride levels, using an automated biochemistry analyzer (AU400, Olympus, Japan). Leptin and adiponectin vary in secretion and function depending on the level of fat accumulated in the body. The preventive and therapeutic effects of the mixture according to the present invention were determined in view of plasma levels of leptin and adiponectin.
In this regard, the blood levels of the hormones were measured using Mouse Leptin ELISA kit (Cat. #: MOB00) and Mouse Adiponectin ELISA kit (Cat. #: MRP300), respectively, both commercially available from R&D Systems.

[5] = system: high-fat diet-induced obesity models; experiment: Effect on liver function: liver weight, hepatic triglyceride, GOT, GPT, pathology in high-fat diet-induced obesity mice; format: in vivo, C57BL/6 mice
Method: as §1, §2, §3, §4
Mice administered with JBB21, LWE, and JBB21+LWE were euthanized with CO2 gas and underwent laparotomy to excise the livers therefrom. The livers were weighed with a chemical balance, and compared with those from the control and the obese groups. A part of the liver was frozen in liquid nitrogen (LN2) to measure triglyceride and cholesterol contents while the other part was fixed in formalin for pathological analysis.
The frozen liver tissues were homogenized by a homogenizer, followed by centrifugation. The supernatant was analyzed for hepatic triglyceride and cholesterol levels using a triglyceride quantification kit (Cat. #: K622-100), and a cholesterol/cholesteryl ester quantification kit (Cat. #: K603-100), respectively, both commercially available from Biovision.
For pathological analysis, the liver tissue fixed in formalin was embedded in a paraffin block, and sectioned, and stained with H&E (Hematoxylin & Eosin) before observation under an optical microscope (FIG. 1).

[6] = L. chinensis leaf extract powder 10 g twice/day 22 days
[7] = L. chinensis leaf extract powder 10 g twice/day 22 days, baseline
[8] = HFD mice, oral five times a week for 56 days
[9] = compared to the obese group (Vehicle Control)
[10] = HFD mice, JBB21 1, LWE 2, JBB21+LWE 1+2 g/kg
[11] = vs. Vehicle Control, JBB21 1, LWE 2, JBB21+LWE 1+2 g/kg

With `C[N+](C)(C)CC(=O)O` [JBB21, betaine] as the compound, how does the “BMI, After Administration” value [1] read?
Its value is 29.3.

What about the “BMI, Reduction” value [1] of the same compound?
Its value is 2.7%.

And the “Body Fat, After Administration” value [1, 6]?
The value was 25.9.

What about the “Body Fat, Change” value [1, 6] of the same compound?
Its value is -1.7 kg.

What about the “Body Fat, Reduction” value [1, 6] of the same compound?
The value was 6.2%.

What about the “Body Fatness (body fat percentage), After Administration” value [1, 6] of the same compound?
Its value is 30.7.

What about the Body Fatness (body fat percentage), Change [1, 6] of the same compound?
Its Body Fatness (body fat percentage), Change is -1%.

And the “Body Fatness (body fat percentage), Reduction” value [1, 6]?
Its value is 3.2%.

What about the “Muscle Mass, After Administration” value [1, 6] of the same compound?
Its value is 55.5.

And the “Muscle Mass, Change” value [1, 6]?
The value was -0.7 kg.

What about the “Muscle Mass, Reduction” value [1, 6] of the same compound?
Its value is 1.3%.

What about the “Weight, After Administration” value [1, 6] of the same compound?
Its value is 84.0 kg.

What about the “Weight, Change” value [1, 6] of the same compound?
Its value is -3.0 kg.

What about the “Weight, Reduction” value [1, 6] of the same compound?
The value was 3.5%.

And the “Body Fat, Before Administration” value [1, 7]?
The value was 27.6.

And the “Body Fatness (body fat percentage), Before Administration” value [1, 7]?
The value was 31.7.

What about the “Muscle Mass, Before Administration” value [1, 7] of the same compound?
Its value is 56.2.

What about the “Weight, Before Administration” value [1, 7] of the same compound?
Its value is 87.0 kg.

And the “BMI, Before Administration” value ([1]; baseline)?
Its value is 30.1.

And the “Weight, day 0 after treatment” value ([2]; day 0, HFD (60% Kcal) mice, oral five times a week, n = 10, in g (unit assumed))?
Its value is 31.1 ± 1.5.

And the “Weight, day 11 after treatment” value ([2]; day 11, HFD (60% Kcal) mice, oral five times a week, n = 10, in g (unit assumed))?
The value was 31.9 ± 1.6.

And the “Weight IR(%), day 11” value ([2]; day 11, vs. Vehicle Control (obese group))?
Its value is 5.6%.

What about the “Weight, day 21 after treatment” value ([2]; day 21, HFD (60% Kcal) mice, oral five times a week, n = 10, in g (unit assumed)) of the same compound?
The value was 34.5 ± 1.8.

What about the “Weight IR(%), day 21” value ([2]; day 21, vs. Vehicle Control (obese group)) of the same compound?
Its value is 5.8%.

And the “Weight, day 30 after treatment” value ([2]; day 30, HFD (60% Kcal) mice, oral five times a week, n = 10, in g (unit assumed))?
The value was 36.1 ± 2.3.

And the “Weight IR(%), day 30” value ([2]; day 30, vs. Vehicle Control (obese group))?
The value was 8.8%.

What about the “Weight, day 39 after treatment” value ([2]; day 39, HFD (60% Kcal) mice, oral five times a week, n = 10, in g (unit assumed)) of the same compound?
Its value is 38.4 ± 2.7.

And the “Weight IR(%), day 39” value ([2]; day 39, vs. Vehicle Control (obese group))?
Its value is 9.6* %.

And the “Weight, day 51 after treatment” value ([2]; day 51, HFD (60% Kcal) mice, oral five times a week, n = 10, in g (unit assumed))?
The value was 40.9 ± 3.1.

And the “Weight IR(%), day 51” value ([2]; day 51, vs. Vehicle Control (obese group))?
The value was 9.6* %.

And the “Weight, day 56 after treatment” value ([2]; day 56, HFD (60% Kcal) mice, oral five times a week, n = 10, in g (unit assumed))?
Its value is 42.0 ± 3.4.

What about the “Weight IR(%) / weight loss, day 56 (last day)” value ([2]; day 56, vs. Vehicle Control (obese group)) of the same compound?
Its value is 9.4%.

What about the “Subcutaneous Fat” value [3, 8] of the same compound?
Its value is 2975.4 ± 530.4 mg.

And the “Total Fat” value [3, 8]?
The value was 7030.2 ± 947.9 mg.

What about the “Subcutaneous Fat IR(%)” value [3, 9] of the same compound?
Its value is 14.2%.

What about the “Total Fat IR(%)” value [3, 9] of the same compound?
The value was 4.3% and 4.2%.

And the “Leptin IR(%)” value [4, 9]?
Its value is 9.1% and 9.2%.

And the “Leptin (blood)” value ([4]; plasma, day 56, HFD mice)?
Its value is 134.3 ng/mL.

What about the “Triglyceride (blood)” value ([4]; plasma, day 56, HFD mice) of the same compound?
The value was 74.7 mg/dL.

What about the “Triglyceride (blood) IR(%)” value ([4]; vs. Vehicle Control) of the same compound?
The value was 22.3%.

And the “Liver Wt” value ([5]; HFD mice, 56 days, JBB21 1, LWE 2, JBB21+LWE 1+2 g/kg)?
The value was 1511.2 mg.

And the “liver appearance / hepatic fat deposits (in words)” value ([5]; HFD mice, H&E-stained liver tissue (FIG. 1))?
Its value is “clean and healthy livers almost free of fat deposits”.

What about the GOT [5, 10] of the same compound?
Its GOT is 57.1 IU/L.

And the GPT [5, 10]?
The GPT was 39.8 IU/L.

What about the “GOT IR(%)” value ([5]; compared to the obese group (Vehicle Control), JBB21 1, LWE 2, JBB21+LWE 1+2 g/kg) of the same compound?
The value was 59.8%.

What about the Hepatic triglyceride ([5]; liver homogenate supernatant, HFD mice, JBB21 1, LWE 2, JBB21+LWE 1+2 g/kg) of the same compound?
Its Hepatic triglyceride is 3.1389 nmol/mL.

And the “Liver Wt IR(%)” value ([5]; relative to the obese group (Vehicle Control), JBB21 1, LWE 2, JBB21+LWE 1+2 g/kg)?
The value was 25.4%.

And the “GPT IR(%)” value [5, 11]?
The value was 67.2%.

And the “Hepatic triglyceride IR(%)” value [5, 11]?
The value was 10.8%.
